# Values of other authors, collected in PubChem BioAssay AID1259409 (Chemical Carcinogenesis Research Information System (CCRIS), 2018).
# Tested on: rodent chemically induced tumor inhibition, incidence and multiplicity
# Assay: CCRIS tumor inhibitor studies
# Conditions: Promoter: NONE USED
structure (smiles),measurement,setting,value
CCCCCCCCCCCCCCCC(=O)OC/C=C(C)/C=C/C=C(C)/C=C/C1=C(C)CCCC1(C)C,"tumour outcome (control, treated, inhibition, significance)","Carcinogen: 3-METHYLCHOLANTHRENE, 56-49-5, Dose [Inhibitor]: 6 MG IN 0.1 ML ACETONE STARTING 2 WK AFTER CARCINOGEN TREATMENT AND APPLIED 2/WK DURING WK 3-5 OF THE STUDY AND THEN 1/W, Route [Inhibitor]: DERMAL, Species: MOUSE, Strain/Sex: SWISS/FEMALE, Target Tissue: Type of Lesion: SKIN: CARCINOMA, Dose [Carcinogen]: 0.1 ML OF 0.3% DISSOLVED IN ACETONE APPLIED 2/WK FIRST 5 WK THEN 1/WK FOR WK 6-9 FOLLOWED BY NO FURTHER TREATMENT THROUG","5/19 (26%), 4/20 (20%), 23%, not calculated"
same,"tumour outcome (control, treated, inhibition, significance)","Carcinogen: 3-METHYLCHOLANTHRENE, 56-49-5, Dose [Inhibitor]: 6 MG IN 0.1 ML ACETONE STARTING 2 WK AFTER CARCINOGEN TREATMENT AND APPLIED 2/WK DURING WK 3-5 OF THE STUDY AND THEN 1/W, Route [Inhibitor]: DERMAL, Species: MOUSE, Strain/Sex: SWISS/FEMALE, Target Tissue: Type of Lesion: SKIN: PAPILLOMA, Dose [Carcinogen]: 0.1 ML OF 0.3% DISSOLVED IN ACETONE APPLIED 2/WK FIRST 5 WK THEN 1/WK FOR WK 6-9 FOLLOWED BY NO FURTHER TREATMENT THROUG","9/19 (47%), 3/20 (15%), 68%, not calculated"
same,"tumour outcome (control, treated, inhibition, significance)","Carcinogen: 7,12-DIMETHYLBENZ[A]ANTHRACENE, 57-97-6, Dose [Inhibitor]: 0, 5000 IU APPLIED TO EACH CHEEK POUCH 2/WK BEGINNING 15 D POST LAST CARCINOGEN DOSE AND CONTINUING FOR 4.5 MO (STUDY DU, Route [Inhibitor]: DERMAL, Species: HAMSTER, Strain/Sex: SYRIAN/MALE, Target Tissue: Type of Lesion: CHEEK POUCH: TUMOR, Dose [Carcinogen]: 0.125 MG (0.25% LIQUID PARAFFIN SOLUTION) APPLIED TO EACH CHEEK POUCH 2/WK FOR 1 MO","10/15 (67%), 0/20 (0%), 100%, not calculated"
same,"tumour outcome (control, treated, inhibition, significance)","Carcinogen: 7,12-DIMETHYLBENZ[A]ANTHRACENE, 57-97-6, Dose [Inhibitor]: 0, 5000 IU APPLIED TO EACH CHEEK POUCH 2/WK BEGINNING 15 D POST LAST CARCINOGEN DOSE AND CONTINUING FOR 4.5 MO (STUDY DU, Route [Inhibitor]: DERMAL, Species: HAMSTER, Strain/Sex: SYRIAN/MALE, Target Tissue: Type of Lesion: STOMACH: TUMOR, Dose [Carcinogen]: 0.125 MG (0.25% LIQUID PARAFFIN SOLUTION) APPLIED TO EACH CHEEK POUCH 2/WK FOR 1 MO","15/15 (100%), 0/20 (0%), 100%, not calculated"
same,"tumour outcome (control, treated, inhibition, significance)","Carcinogen: 7,12-DIMETHYLBENZ[A]ANTHRACENE, 57-97-6, Dose [Inhibitor]: 20000 IU/KG IN DIET BEGINNING 6 WK PRIOR TO CARCINOGEN DOSE AND CONTINUING FOR 21-22 WK POST CARCINOGEN DOSE (STUDY DURA, Route [Inhibitor]: ORAL, Species: RAT, Strain/Sex: SPRAGUE-DAWLEY/MALE, Target Tissue: Type of Lesion: SALIVARY GLAND: TUMOR, Dose [Carcinogen]: 1 MG IN 20 µL OLIVE OIL INJECTED INTO SUBMANDIBULAR GLAND ONCE","20/28 (71%), 16/29 (55%), 23%, not significant"
same,"tumour outcome (control, treated, inhibition, significance)","Carcinogen: 7,12-DIMETHYLBENZ[A]ANTHRACENE, 57-97-6, Dose [Inhibitor]: 100000 IU/KG IN DIET BEGINNING 6 WK PRIOR TO CARCINOGEN DOSE AND CONTINUING FOR 21-22 WK POST CARCINOGEN DOSE (STUDY DUR, Route [Inhibitor]: ORAL, Species: RAT, Strain/Sex: SPRAGUE-DAWLEY/MALE, Target Tissue: Type of Lesion: SALIVARY GLAND: TUMOR, Dose [Carcinogen]: 1 MG IN 20 µL OLIVE OIL INJECTED INTO SUBMANDIBULAR GLAND ONCE","20/28 (71%), 17/29 (59%), 17%, not significant"
same,"tumour outcome (control, treated, inhibition, significance)","Carcinogen: BENZO[A]PYRENE, 50-32-8, Dose [Inhibitor]: 50, 200 IU/D IN DRINKING WATER FOR 61 WK BEGINNING POST CARCINOGEN TREATMENT (STUDY DURATION: 66 WK), Route [Inhibitor]: ORAL, Species: MOUSE, Strain/Sex: ICR/MALE, Target Tissue: Type of Lesion: FORESTOMACH: CARCINOMA, Dose [Carcinogen]: 20 MG IN 0.2 ML CORN OIL 2/WK FOR 5 WK","8/28 (29%), 5/26 (19%), 34%, not significant"
same,"tumour outcome (control, treated, inhibition, significance)","Carcinogen: BENZO[A]PYRENE, 50-32-8, Dose [Inhibitor]: 50, 200 IU/D IN DRINKING WATER FOR 61 WK BEGINNING POST CARCINOGEN TREATMENT (STUDY DURATION: 66 WK), Route [Inhibitor]: ORAL, Species: MOUSE, Strain/Sex: ICR/MALE, Target Tissue: Type of Lesion: FORESTOMACH: PAPILLOMA, Dose [Carcinogen]: 2 MG IN 0.2 ML CORN OIL 2/WK FOR 5 WK","8/28 (29%), 2/27 (7%), 76%, p<0.05"
same,"tumour outcome (control, treated, inhibition, significance)","Carcinogen: BENZO[A]PYRENE, 50-32-8, Dose [Inhibitor]: 50, 200 IU/D IN DRINKING WATER FOR 61 WK BEGINNING POST CARCINOGEN TREATMENT (STUDY DURATION: 66 WK), Route [Inhibitor]: ORAL, Species: MOUSE, Strain/Sex: ORAL, Target Tissue: Type of Lesion: FORESTOMACH: PAPILLOMA, Dose [Carcinogen]: 20 MG IN O.2 ML CORN OIL 2/WK FOR 5 WK","26/28 (93%), 23/26 (88%), 5%, not significant"
same,"tumour outcome (control, treated, inhibition, significance)","Carcinogen: BENZO[A]PYRENE, 50-32-8, Dose [Inhibitor]: 50, 200 IU/D IN DRINKING WATER FOR DURATION OF STUDY (STUDY DURATION: 66 WK), Route [Inhibitor]: ORAL, Species: MOUSE, Strain/Sex: ICR/MALE, Target Tissue: Type of Lesion: FORESTOMACH: PAPILLOMA, Dose [Carcinogen]: 2 MG IN 0.2 ML CORN OIL 2/WK FOR 5 WK","8/28 (29%), 2/27 (7%), 76%, p,0.05"
same,"tumour outcome (control, treated, inhibition, significance)","Carcinogen: BENZO[A]PYRENE, 50-32-8, Dose [Inhibitor]: 50, 200 IU/D IN DRINKING WATER FOR THE DURATION OF STUDY (STUDY DURATION: 66 WK), Route [Inhibitor]: ORAL, Species: MOUSE, Strain/Sex: ICR/MALE, Target Tissue: Type of Lesion: FORESTOMACH: CARCINOMA, Dose [Carcinogen]: 20 MG IN 0.2 ML CORN OIL 2/WK FOR 5 WK","8/28 (29%), 7/27 (26%), 10%, not significant"
same,"tumour outcome (control, treated, inhibition, significance)","Carcinogen: BENZO[A]PYRENE, 50-32-8, Dose [Inhibitor]: 50, 200 IU/D IN DRINKING WATER FOR THE DURATION OF STUDY (STUDY DURATION: 66 WK), Route [Inhibitor]: ORAL, Species: MOUSE, Strain/Sex: ICR/MALE, Target Tissue: Type of Lesion: FORESTOMACH: PAPILLOMA, Dose [Carcinogen]: 20 MG IN 0.2 ML CORN OIL 2/WK FOR 5 WK","26/28 (93%), 20/27 (74%), 19%, not significant"
same,"tumour outcome (control, treated, inhibition, significance)","Carcinogen: FIBERGLASS DUST, Dose [Inhibitor]: 50 MG/KG BW IN AQUASOL A PLACEBO, 1/3 D FOR 10 TREATMENTS STARTING 3 D POST CARCINOGEN TREATMENT (STUDY DURATION: 90 D), Route [Inhibitor]: INTRAPERITONEAL, Species: MOUSE, Strain/Sex: STRAIN-A/MALE, Target Tissue: Type of Lesion: LUNG: BRONCHIOGENIC OR SEPTAL CELL TUMOR, Dose [Carcinogen]: 300 MG IN 100 G OF STERILIZED PINE SAWDUST BEDDING CHANGED 1/3 D FOR 30 D STARTING 33 D PRIOR TO START OF AGENT TREATMEN","6/12 (50%), 1/12 (8%), 84%, not calculated"
same,"tumour outcome (control, treated, inhibition, significance)","Carcinogen: N-METHYL-N'-NITRO-N-NITROSOGUANIDINE, 70-25-7, Dose [Inhibitor]: 0, 150000 IU/KG DIET FOR 37 WK (STUDY DURATION: 38 WK), Route [Inhibitor]: ORAL, Species: RAT, Strain/Sex: WISTAR/MALE, Target Tissue: Type of Lesion: FORESTOMACH: BENIGN PAPILLOMA, Dose [Carcinogen]: 83 UG/ML IN DISTILLED DRINKING WATER FOR 37 WK","15/51 (29%), 3/28 (11%), 62%, p<0.05"
same,"tumour outcome (control, treated, inhibition, significance)","Carcinogen: N-METHYL-N'-NITRO-N-NITROSOGUANIDINE, 70-25-7, Dose [Inhibitor]: 0, 150000 IU/KG DIET FOR 37 WK (STUDY DURATION: 38 WK), Route [Inhibitor]: ORAL, Species: RAT, Strain/Sex: WISTAR/MALE, Target Tissue: Type of Lesion: GASTROINTESTINAL TRACT (UPPER): MALIGNANT NEOPLASMS, Dose [Carcinogen]: 83 UG/ML IN DISTILLED DRINKING WATER FOR 37 WK","17/51 (33%), 18/28 (64%), -94%, p<0.05"
same,"tumour outcome (control, treated, inhibition, significance)","Carcinogen: N-METHYL-N-NITROSOUREA, 684-93-5, Dose [Inhibitor]: 0.03 MMOL 3/WK STARTING 12 D THROUGH ABOUT 8 MO AFTER FIRST CARCINOGEN DOSE (STUDY DURATION: APPROXIMATELY 8 MO), Route [Inhibitor]: INTRARECTAL, Species: RAT, Strain/Sex: F344/MALE, Target Tissue: Type of Lesion: COLON: ADENOCARCINOMA, Dose [Carcinogen]: 2.5 MG 1/WK FOR 2 WK","3/39 (8%), 4/39 (10%), -25%, not significant"
same,"tumour outcome (control, treated, inhibition, significance)","Carcinogen: N-METHYL-N-NITROSOUREA, 684-93-5, Dose [Inhibitor]: 0.03 MMOL 3/WK STARTING 12 D THROUGH ABOUT 8 MO AFTER FIRST CARCINOGEN DOSE (STUDY DURATION: APPROXIMATELY 8 MO), Route [Inhibitor]: INTRARECTAL, Species: RAT, Strain/Sex: F344/MALE, Target Tissue: Type of Lesion: COLON: ADENOMA, Dose [Carcinogen]: 2.5 MG 1/WK FOR 2 WK","11/39 (28%), 24/39 (62%), -121%, p<0.05"
same,"tumour outcome (control, treated, inhibition, significance)","Carcinogen: N-METHYL-N-NITROSOUREA, 684-93-5, Dose [Inhibitor]: 0.03 MMOL 3/WK STARTING 15 D PRIOR TO THROUGH ABOUT 8 MO AFTER FIRST CARCINOGEN DOSE (STUDY DURATION: APPROXIMATELY 8 MO, Route [Inhibitor]: INTRARECTAL, Species: RAT, Strain/Sex: F344/MALE, Target Tissue: Type of Lesion: COLON: ADENOCARCINOMA, Dose [Carcinogen]: 2.5 MG 1/WK FOR 2 WK","3/39 (8%), 10/38 (26%), -225%, not significant"
same,"tumour outcome (control, treated, inhibition, significance)","Carcinogen: N-METHYL-N-NITROSOUREA, 684-93-5, Dose [Inhibitor]: 0.03 MMOL 3/WK STARTING 15 D PRIOR TO THROUGH ABOUT 8 MO AFTER FIRST CARCINOGEN DOSE (STUDY DURATION: APPROXIMATELY 8 MO, Route [Inhibitor]: INTRARECTAL, Species: RAT, Strain/Sex: F344/MALE, Target Tissue: Type of Lesion: COLON: ADENOMA, Dose [Carcinogen]: 2.5 MG 1/WK FOR 2 WK","11/39 (28%), 24/38 (63%), -125%, p<0.05"
